Reference: ChEMBL document CHEMBL3091298, “Bis-phosphonium salts of pyridoxine: the relationship between structure and antibacterial activity” (Bioorg Med Chem, 2013)
≈ marks a conversion by molar mass, not a printed value.

Key:
[1] = Genotoxicity in recA-deficient Escherichia coli assessed as survival at 100 ug/ml after 6 hrs by DNA-repair test; type: toxicity, organism-based; conditions: read-out: Survival
[2] = Genotoxicity in uvrA-deficient Escherichia coli assessed as survival at 1 ug/ml after 6 hrs by DNA-repair test; type: toxicity, organism-based; conditions: read-out: Survival
[3] = Genotoxicity in uvrA-deficient Escherichia coli assessed as survival at 100 ug/ml after 6 hrs by DNA-repair test; type: toxicity, organism-based; conditions: read-out: Survival
Proteus sp. = assay: Antibacterial activity against Proteus sp. after 18 to 24 hrs; type: functional; conditions: Proteus sp. (in: enterobacteria)
Salmonella typhimurium [4] = assay: Mutagenic activity in Salmonella typhimurium TA100 assessed as increase in number of revertants at 1 ug/ml by Ames test relative to solvent control; type: toxicity, organism-based; conditions: salmonella enterica subsp. enterica serovar typhimurium
Staphylococcus aureus = assay: Antibacterial activity against Staphylococcus aureus after 18 to 24 hrs; type: functional
[5] = Genotoxicity in recA-deficient Escherichia coli assessed as survival at 1 ug/ml after 6 hrs by DNA-repair test; type: toxicity, organism-based; conditions: read-out: Survival
Salmonella typhimurium [6] = assay: Mutagenic activity in Salmonella typhimurium TA100 assessed as increase in number of revertants at 10 ug/ml by Ames test relative to solvent control; type: toxicity, organism-based; conditions: salmonella enterica subsp. enterica serovar typhimurium
Klebsiella pneumoniae = assay: Antibacterial activity against Klebsiella pneumoniae after 18 to 24 hrs; type: functional
[7] = Genotoxicity in uvrA-deficient Escherichia coli assessed as survival at 10 ug/ml after 6 hrs by DNA-repair test; type: toxicity, organism-based; conditions: read-out: Survival
[8] = Cytotoxicity against HEK293 cells after 72 hrs by MTT assay; type: cell-based; conditions: human, HEK293 cells
[9] = Genotoxicity in polA-deficient Escherichia coli assessed as survival at 100 ug/ml after 6 hrs by DNA-repair test; type: toxicity, organism-based; conditions: read-out: Survival
[10] = Genotoxicity in polA-deficient Escherichia coli assessed as survival at 10 ug/ml after 6 hrs by DNA-repair test; type: toxicity, organism-based; conditions: read-out: Survival
Salmonella typhimurium [11] = assay: Mutagenic activity in Salmonella typhimurium TA100 assessed as increase in number of revertants at 100 ug/ml by Ames test relative to solvent control; type: toxicity, organism-based; conditions: salmonella enterica subsp. enterica serovar typhimurium
[12] = Genotoxicity in polA-deficient Escherichia coli assessed as survival at 1 ug/ml after 6 hrs by DNA-repair test; type: toxicity, organism-based; conditions: read-out: Survival
[13] = Genotoxicity in recA-deficient Escherichia coli assessed as survival at 10 ug/ml after 6 hrs by DNA-repair test; type: toxicity, organism-based; conditions: read-out: Survival
[14] = test system: Staphylococcus epidermidis; assay: Antibacterial activity against Staphylococcus epidermidis after 18 to 24 hrs; type: functional

SMILES	MIC (Proteus sp.) [mg/L]	MIC (Staphylococcus aureus) [mg/L]	MIC (Klebsiella pneumoniae) [mg/L]	CC50 at 72 h [8] [mg/L]	MIC [14] [mg/L]	further results
CCCC1OCc2c(C[P+](c3ccccc3)(c3ccccc3)c3ccccc3)c(C[P+](c3ccccc3)(c3ccccc3)c3ccccc3)nc(C)c2O1.[Cl-].[Cl-] (stereo not given)	> 1000	1	> 1000	3	1	viability at 6 h, 100 ug/ml [1]: 80.4%; viability at 6 h, 1 ug/ml [2]: 113%; viability at 6 h, 100 ug/ml [3]: 64.4%; Ratio (Salmonella typhimurium [4]): 0.91; viability at 6 h, 1 ug/ml [5]: 87.8%; Ratio (Salmonella typhimurium [6]): 1.12; viability at 6 h, 10 ug/ml [7]: 116%; viability at 6 h, 100 ug/ml [9]: 57.7%; viability at 6 h, 10 ug/ml [10]: 108%; Ratio (Salmonella typhimurium [11]): 1.08; viability at 6 h, 1 ug/ml [12]: 110%; viability at 6 h, 10 ug/ml [13]: 83.1%
Cc1cccc([P+](Cc2nc(C)c3c(c2C[P+](c2cccc(C)c2)(c2cccc(C)c2)c2cccc(C)c2)COC(C)(C)O3)(c2cccc(C)c2)c2cccc(C)c2)c1.[Cl-].[Cl-]	> 1000	1.25	1000	13	1.25	
Cc1nc(C[P+](c2ccc(F)cc2)(c2ccc(F)cc2)c2ccc(F)cc2)c(C[P+](c2ccc(F)cc2)(c2ccc(F)cc2)c2ccc(F)cc2)c(CO)c1O.Cl.[Cl-].[Cl-]	> 1000	1000	> 1000		1000	
CCCC[P+](CCCC)(CCCC)Cc1nc(C)c(O)c(CO)c1C[P+](CCCC)(CCCC)CCCC.Cl.[Cl-].[Cl-]	> 1000	1000	> 1000		1000	
CCC1OCc2c(C[P+](c3ccccc3)(c3ccccc3)c3ccccc3)c(C[P+](c3ccccc3)(c3ccccc3)c3ccccc3)nc(C)c2O1.[Cl-].[Cl-] (stereo not given)	> 1000	10	> 1000	4	10	
Cc1nc(C[P+](c2ccccc2)(c2ccccc2)c2ccccc2)c(C[P+](c2ccccc2)(c2ccccc2)c2ccccc2)c2c1OC(C)(C)OC2.O=[N+]([O-])[O-].O=[N+]([O-])[O-]	> 1000	100	1000		100	
CCCCC1OCc2c(C[P+](c3ccccc3)(c3ccccc3)c3ccccc3)c(C[P+](c3ccccc3)(c3ccccc3)c3ccccc3)nc(C)c2O1.[Cl-].[Cl-] (stereo not given)	> 1000	5	1000	2	10	
CCCC1OCc2c(C[P+](c3ccc(C)cc3)(c3ccc(C)cc3)c3ccc(C)cc3)c(C[P+](c3ccc(C)cc3)(c3ccc(C)cc3)c3ccc(C)cc3)nc(C)c2O1.[Cl-].[Cl-] (stereo not given)	1000	2.5	1000	1	2.5	
Cc1cccc([P+](Cc2nc(C)c(O)c(CO)c2C[P+](c2cccc(C)c2)(c2cccc(C)c2)c2cccc(C)c2)(c2cccc(C)c2)c2cccc(C)c2)c1.Cl.[Cl-].[Cl-]	> 1000	12.5	> 1000		12.5	
Cc1nc2c(c(CO)c1O)C[P+](c1ccccc1)(c1ccccc1)CC[P+](c1ccccc1)(c1ccccc1)C2.Cl.[Cl-].[Cl-]	> 1000	500	> 1000		500	
Cc1nc(C[P+](c2ccc(F)cc2)(c2ccc(F)cc2)c2ccc(F)cc2)c(C[P+](c2ccc(F)cc2)(c2ccc(F)cc2)c2ccc(F)cc2)c2c1OC(C)(C)OC2.[Cl-].[Cl-]	> 1000	50	> 1000		50	
Cc1nc2c(c3c1OC(C)(C)OC3)C[P+](c1ccccc1)(c1ccccc1)CC[P+](c1ccccc1)(c1ccccc1)C2.[Cl-].[Cl-]	> 1000	125	> 1000		100	
Cc1nc(C[P+](c2ccccc2)(c2ccccc2)c2ccccc2)c(C[P+](c2ccccc2)(c2ccccc2)c2ccccc2)c2c1OC(C)(C)OC2.[I-].[I-]	> 1000	10	> 1000		10	
CN[C@H](CC(C)C)C(=O)N[C@H]1C(=O)N[C@@H](CC(N)=O)C(=O)N[C@H]2C(=O)N[C@H]3C(=O)N[C@H](C(=O)N[C@H](C(=O)O)c4cc(O)cc(O)c4-c4cc3ccc4O)[C@H](O)c3ccc(c(Cl)c3)Oc3cc2cc(c3O[C@@H]2O[C@H](CO)[C@@H](O)[C@H](O)[C@H]2O[C@H]2C[C@](C)(N)[C@H](O)[C@H](C)O2)Oc2ccc(cc2Cl)[C@H]1O [VANCOMYCIN]	> 1000	2.5 (≈ 1.73 µM)	> 1000	> 1000	2.5 (≈ 1.73 µM)	
Cc1nc(C[P+](c2ccccc2)(c2ccccc2)c2ccccc2)c(C[P+](c2ccccc2)(c2ccccc2)c2ccccc2)c2c1OC(C)OC2.[Cl-].[Cl-] (stereo not given)	> 1000	12.5	> 1000	33.9	10	
CCCCCCCC1OCc2c(C[P+](c3ccccc3)(c3ccccc3)c3ccccc3)c(C[P+](c3ccccc3)(c3ccccc3)c3ccccc3)nc(C)c2O1.[Cl-].[Cl-] (stereo not given)	> 1000	10	1000	0.5	10	
Cc1nc(C[P+](c2ccccc2)(c2ccccc2)c2ccccc2)c(C[P+](c2ccccc2)(c2ccccc2)c2ccccc2)c2c1OC(C(C)C)OC2.[Cl-].[Cl-] (stereo not given)	> 1000	10	> 1000	2.57	5	
Cc1ccc([P+](Cc2nc(C)c3c(c2C[P+](c2ccc(C)cc2)(c2ccc(C)cc2)c2ccc(C)cc2)COC(C)(C)O3)(c2ccc(C)cc2)c2ccc(C)cc2)cc1.[Cl-].[Cl-]	> 1000	1	> 1000	29.5	1	
Cc1nc(C[P+](c2cccs2)(c2cccs2)c2cccs2)c(C[P+](c2cccs2)(c2cccs2)c2cccs2)c2c1OC(C)(C)OC2.[Cl-].[Cl-]	> 1000	100	> 1000		100	
Cc1nc(C[P+](c2ccccc2)(c2ccccc2)c2ccccc2)c(CO)c2c1OC(C)(C)OC2.[Br-]	> 1000	10	> 1000		10	
CCCCCC1OCc2c(C[P+](c3ccccc3)(c3ccccc3)c3ccccc3)c(C[P+](c3ccccc3)(c3ccccc3)c3ccccc3)nc(C)c2O1.[Cl-].[Cl-] (stereo not given)	> 1000	5	1000	1	5	
Cc1nc(C[P+](c2cccs2)(c2cccs2)c2cccs2)c(C[P+](c2cccs2)(c2cccs2)c2cccs2)c(CO)c1O.Cl.[Cl-].[Cl-]	> 1000	1000	> 1000		> 1000	
Cc1ccc([P+](Cc2nc(C)c(O)c(CO)c2C[P+](c2ccc(C)cc2)(c2ccc(C)cc2)c2ccc(C)cc2)(c2ccc(C)cc2)c2ccc(C)cc2)cc1.Cl.[Cl-].[Cl-]	> 1000	> 1000	> 1000		> 1000	
